Source: patent US9320745B2, “Use of cholest-4-en-3-one derivatives for obtaining a cytoprotective drug” (TROPHOS, priority 2006, dated 2016)

Experiments:
mice = experiment: Toxicological study in mice; type: in vivo; settings: oral, sub-cutaneous, intra-peritoneal and intravenous routes, doses up to 300 mg/kg/day, daily, as far as 28 days
[1] = tested on: rabbit ventricular cardiomyocytes; experiment: Contractile dysfunction test induced by doxorubicin (sarcomere shortening of isolated cardiomyocytes); type: cell-based
Method: (§1) Isolated ventricular cells are obtained from New Zealand male rabbit hearts as described in A. d'Anglemont de Tassigny et al., Fund. Clin. Pharmacol., 18: pp. 531-38, 2004. Briefly, the rabbits (2.0-2.5 kg) are anaesthesized with a pentobarbital (50 mg/kg) solution and then receive heparin (200 IU/kg). The hearts are excised and immediately perfused, for 10-15 minutes by means of a Langendorff apparatus without recirculation with an oxygenated (calcium-free) tyrode isotonic solution (95%, 2-5% CO2) (in mM: NaCl 135, KCl 5.4, Na2PO4 0.33, MgCl2 1.0, HEPES 10, pH adjusted to 7.4 with 1N NaOH at 37° C., 280-300 mOsmol/kgH2O). Next, all the hearts were perfused for 3 minutes in a “recirculation” mode with the same calcium-free Tyrode solution (coronary flow rate, 10-15 mL/min) added with 1 mg/mL of type II collagenase and 0.28 mg/mL of type XIV protease. Finally all the hearts are perfused in a mode without recirculation with the same solution of Tyrode supplemented with 0.3 mM CaCl2 for 10 min. The left ventricle is removed and cut into small pieces; cell dissociation is achieved by mild mechanical stirring. Extracellular calcium is added by increments every 15 minutes, in order to reach a physiological concentration of 1.0 mM. The isolated myocytes are maintained in a medium without serum containing (in mM) NaCl 110, KCl 5.4, Na2PO4 0.33, NaHCO3 25, Glucose 5, MgCl2 0.8, CaCl2 1, pH adjusted to 7.4, right up to 1 h30 before experimentation.
The myocytes are transferred into a chamber at 37° C., continuously perfused and positioned on the stage of an inverted microscope. The chamber is perfused with a physiological buffer containing (in mM): NaCl-140; KCl 5.4; CaCl2 1; MgCl2 0.8; HEPES 10 and glucose 5.6 (pH=7.4; 290 mOsmol/kgH2O).
Contraction of the myocytes is induced once a second (1 Hz) with platinum field electrodes placed in the chamber and connected to a simulator. The images are captured continuously with a ×20 objective and transmitted to a CCD camera at a rate of 240 samples/s. […]
The myocytes were selected for the study according to the following criterion: a rod-like aspect with very apparent striations and no intracellular vacuola, no spontaneous contraction when they are stimulated with 1 mM Ca^2+, and with constant rest length and contraction amplitude. The length of the sarcomers was measured by a video image analysis program and the data were captured at a rate of 240 samples/s. […]
(§2) Apoptosis is induced in isolated cardiomyocytes by exposing them for 3 to 8 hrs to 1 μM of doxorubicin added in an isotonic solution containing (in mM) NaCl 110, KCl 5.4, Na2PO4 0.33, NaHCO3 25, Glucose 5, MgCl2 0.8, CaCl2 1, pH adjusted to 7.4. […] The contractility of cardiomyocytes was measured every hour during the 8 hrs of exposure to doxorubicin. […]

Male CD1 adult mice = experiment: In vivo model of acute hepatotoxicity induced by Jo2 anti-Fas antibody (ALAT assay, survival)
Description: An acute hepatic damage model may be induced by a single injection of the Jo2 anti-Fas antibody (Ogasawara et al., Nature, August 1993), producing severe hepatic damages and resembling viral, auto-immune or drug-induced hepatitis.
Alanine Aminotransferase (ALAT) also called Serum Glutamic Pyruvic Transaminase (SGPT) is an enzyme present in hepatocytes.
The conducted experimentation consisted in intoxicating animals with Jo2 followed by an assay of ALATs and of testing the cholest-4-en-3-one oxime capability of protecting hepatocytes.
Male CD1 adult mice from the breeder “Elevage Janvier”, (Le Genest-Saint-Isle, France) were used. The animals were identified individually and had free access to water and food.
The stock solution of monoclonal hamster anti-mouse CD95 (Fas) antibody called Jo2, from Pharmingen (BD Biosciences, ref. 554254 batch 66081) is at a concentration of 1 mg/mL in water. The dilutions used are produced in 0.9% sodium chloride in water.
The desired amount of cholest-4-en-3-one oxime is weighed and milled into a fine powder, and then suspended (60 mg/ml) in maize oil. The compound is administered orally (by force-feeding) at a concentration of 5 ml/kg.
A pre-treatment with cholest-4-en-3-one oxime is carried out at a dose of 300 mg/kg per oral administration 4 hrs before administering the Jo2 antibody. […]

monkeys = experiment: Toxicological study in monkeys; type: in vivo; settings: oral, increasing daily doses up to 1,500 mg/kg over 10 days
[2] = tested on: rabbit ventricular cardiomyocytes; experiment: Apoptosis by annexin V marking in doxorubicin-exposed cardiomyocytes; type: cell-based; settings: 3 hrs after doxorubicin, control 100%
Method: as §1
Marking phosphatidylserine with annexin V was used as a quantitative method for measuring apoptosis by using the MiniMacs cell isolation kit (Miltenyi Biotec, Bergisch, Gladbach, Germany). Briefly, the cells exposing phosphatidylserine are marked with annexin V microbeads magnetically, and then passed into a column placed in a magnetic field. The marked cells (which have magnetically marked phosphatidylserine) are retained in the column whereas the non-marked ones (necrotic cells and non-apoptotic cells) are not retained. The column is removed from the magnetic field; the magnetically retained cells exposing phosphatidylserine are eluted as a positive fraction and counted with a Mallassez cell counter. The percentage of apoptotic cells is then referred to the initial number of cells.
as §2, with “7.4. Annexin V marking was carried out 3 hrs after the beginning of exposure to doxorubicin since this phenomenon appears very early in the apoptotic cascade.” for “7.4.”

caspase-3 = experiment: Apoptosis by caspase-3 activity measurement in doxorubicin-exposed cardiomyocytes; type: cell-based, rabbit; settings: 8 hrs after exposure, control 18±9 fmol/min
Method: as §1
Caspase-3 activity is used as a quantitative method for measuring apoptosis. Briefly, the cells are lysed and the supernatant is used for caspase-3 activity measurement by using the AK-005 kit (Biomol Research Laboratories, Plymouth Meeting, Pa., USA). The fluorogenic substrate for measuring caspase-3 activity (DEVD) is marked with the fluorochrome, 7-amino-4-methyl coumarin (AMC) which produces […] fluorescence detectable in UV light at 360/460 nm for 210 min. AMC is released from the substrate by cleavage by caspase-3, the expression of the enzyme is expressed in fmol/min.
Apoptosis is induced in isolated cardiomyocytes by exposing them for 3 to 8 hrs to 1 μM of doxorubicin added in an isotonic solution containing (in mM) NaCl 110, KCl 5.4, Na2PO4 0.33, NaHCO3 25, Glucose 5, MgCl2 0.8, CaCl2 1, pH adjusted to 7.4. Annexin V marking was carried out 3 hrs after the beginning of exposure to doxorubicin since this phenomenon appears very early in the apoptotic cascade. Caspase-3 activity measurements were conducted 8 hrs after exposure to doxorubicin since this phenomenon takes place later in the apoptosis phenomenon. The contractility of cardiomyocytes was measured every hour during the 8 hrs of exposure to doxorubicin. After all the treatments, the cells were compared with control cardiomyocytes not exposed to doxorubicin. […]

SMILES	toxicity (mice)	shortening of the peak relatively to the base line ([1]; 0.3 μM compound, 15 min pretreatment, 1 μM doxorubicin, after 4 hrs of exposure)	shortening of the peak relatively to the base line ([1]; 1 μM compound, 15 min pretreatment, 1 μM doxorubicin, after 4 hrs of exposure)	shortening of the peak relatively to the base line ([1]; 3 μM compound, 15 min pretreatment, 1 μM doxorubicin, after 4 hrs of exposure)	ALAT activity (U/L) Mean +/− SEM (n) (Male CD1 adult mice; 300 mg/kg oral 4 hrs before Jo2 125 μg/kg i.p., measured 24 hrs after Jo2, control 2,586 ± 474, p = 0.0037)	death of mice within 24 hrs following the Jo2 injection (Male CD1 adult mice; 300 mg/kg oral, 4 hrs before the Jo2 antibody)	toxicity (monkeys)	change in % of annexin V marking ([2]; doxorubicin + 0.3 μM compound)	change in % of annexin V marking ([2]; doxorubicin + 1 μM compound)	change in % of annexin V marking ([2]; doxorubicin + 3 μM compound)	caspase-3 activity (caspase-3; doxorubicin + 0.3 μM compound)	caspase-3 activity (caspase-3; doxorubicin + 1 μM compound)	caspase-3 activity (caspase-3; doxorubicin + 3 μM compound)	shortening of the peak relatively to the base line ([1]; 1 μM doxorubicin alone, after 4 hours of exposure, control −19.49±2.06%, n=5)	change in % of annexin V marking ([2]; 1 μM doxorubicin alone)	caspase-3 activity (caspase-3; 1 μM doxorubicin alone)
CC(C)CCC[C@@H](C)[C@H]1CC[C@H]2[C@@H]3CCC4=CC(=NO)CC[C@]4(C)[C@H]3CC[C@]12C [cholest-4-en-3-one oxime]	did not show any significant toxicity	−25.35±0.18%	−15.66±5.72%	−13.95±3.17%	1,136 ± 175 (20) U/L	prevent the death of mice	did not reveal any toxicity	130%	121%	115.5%	33 ± 9 fmol/min	18 ± 8 fmol/min	11 ± 4 fmol/min			
COc1cccc2c1C(=O)c1c(O)c3c(c(O)c1C2=O)C[C@@](O)(C(=O)CO)C[C@@H]3O[C@H]1C[C@H](N)[C@H](O)[C@H](C)O1 [doxorubicin, reference compound]														−53.20±7.70%	291%	120 ± 15 fmol/min
